Here are results for two molecules from PMC9181543, “Lysosomal Exocytosis of Olivacine on the Way to Explain Drug Resistance in Cancer Cells” (International Journal of Molecular Sciences, 2022).

The term pIC50 denotes −log10 of the IC50, conventionally taken in molar units.

Series [1] deals with A549, MCF-7, LoVo, LoVo/DX, CCRF/CEM, and NHDF cells. The series is described as follows: MTT assay, whole cell line panel. It counts as cell-based. The conditions noted are these: Homo sapiens, range across all cell lines, read-out: IC50 range over the cell lines. On the procedure:
The anticancer activity of tested compounds was assessed on five human cell lines selected from the panel of tumor cell lines recommended by the National Cancer Institute: A495 (lung carcinoma), CCRF/CEM (acute lymphoblastic leukemia), LoVo and LoVo/DX (two types of colorectal: non-resistant and resistant to doxorubicin), and MCF-7 (breast adenocarcinoma). In addition, the NHDF cell line (normal human dermal fibroblasts) was used to estimate cytotoxicity to noncancer cells. The A549, CCRF/CEM, LoVo, LoVo/DX, and MCF-7 cells were obtained from ECACC, and NHDF cells from LONZA, Belgium. The A549 and MCF-7 cells were grown in EMEM medium, CCRF/CEM cells in RPMI-1640, LoVo and LoVo/DX cells in DMEM/F-12, and NHDF cells in DMEM without phenol red. The cells were seeded in […] in the biological assay, as recommended by the National Cancer Institute. All culture media were supplemented with L-glutamine, penicillin, streptomycin, and 10% fetal bovine serum (FBS). […]
An assessment of the mitochondrial cell activity after applying tested compounds was carried out using the test MTT assay, recommended in the ISO 10993-5:2009 standard. […] After 30 min, absorbance at 570 nm in Victor2 microplate reader (PerkinElmer). Cell viability was determined as the IC50 ratio, i.e., the concentration of the compound in which the viability was reduced by half compared with the control.

The subject of the next series is NHDF cells. The series is described as follows: Cell morphology, microscopic observation, NHDF. It counts as cell-based, human. The conditions noted are these: NHDF normal cells, 24 h incubation. On the procedure: Olivacine, similar to ellipticine, is a compound with fluorescent properties. Therefore, by analyzing the intensity of fluorescence over time, it is possible to assess the cellular pharmacokinetics of the compounds. At the same time, cell morphology was also assessed. The cells were seeded into a 96-well plate and cultured for 24 h (37 °C, 5% CO2) for cell adhesion to the surface and regeneration. […] The culture plate was placed under a Juli microscope, and the device with the plate inside was put in the CO2 incubator. Pictures were taken every 15 min for 24 h. We have prepared software that allowed us to measure the fluorescence intensity of the indicated cells. Fluorescence analysis was performed for all images (every 15 min) during a period of rapid change in fluorescence intensity and less often at a later period when it stabilized. Three independent experiments were carried out, always analyzing 50 selected cells.

The next series relates to MCF-7 cells. Also noted: method as in PMID 15896464. The conditions noted are these: cited from earlier work.
For a further series, the system named is Saos-2 cells. Also noted: method as in PMID 12881704. The conditions noted are these: cited from earlier work.
For another series, the system named is MV4–11 cells. Also noted: method as in PMID 25107543. The conditions noted are these: 5 μM; cited from earlier work.

pIC50: −log10 of the molar value. Where “and” joins values, the source holds several entries; their conditions need not be identical. Equal values may be shown once.

As for `Cc1nccc2c(C)c3[nH]c4ccccc4c3cc12` [Olivacine, 1,5-dimethyl-6H-pyrido[4,3-b]carbazole], the pIC50 in series [1] was 4.59 to 4.92. Also, the results for the cell morphology entry in the series with NHDF cells (2 μM), in the series with NHDF cells (5 μM) and with NHDF cells (20 μM) were “did not negatively affect cell morphology”, “normal” and “only a few fibroblast cells have been disintegrated”, respectively.

In the case of `Cc1c2ccncc2c(C)c2c1[nH]c1ccccc12` [Ellipticine], in the series on MCF-7 cells, the pIC50 is 5.82. The “concentration at which apoptosis was induced” value with Saos-2 cells is 8 µM and 10 µM. The cell cycle effect entry in the series with MV4–11 cells is given as “arrest of the cell cycle at the G2/M checkpoint”.
